Experimental data published in US11718618B2, “Substituted pyrido[2,1-a]isoquinolines as VMAT2 inhibitors” (priority 2021, dated 2023).

biological target: human VMAT2 (Homo sapiens (Human), UniProt Q05940); test: VMAT2 radioligand binding, 3H-dihydrotetrabenazine competition on human platelet homogenate; settings: 10 nM 3H-dihydrotetrabenazine, human platelet homogenate, 25° C., 90 minutes; read-out: VMAT2 Ki
Protocol: Examples of techniques for determining the capability of a compound to inhibit VMAT2 are provided below. The procedure was adapted from that described previously (see, e.g., Near, (1986), Mol. Pharmacol. 30: 252-57; Teng, et al., J. Neurochem. 71, 258-65, 1998). Homogenates from human platelets were prepared by homogenization and then washed by centrifugation as described previously (see, e.g., Hoare et al., (2003) Peptides 24:1881-97).
The human VMAT2 Ki values for the compounds listed in Table 15A and Table 15B were determined using the following procedures. Compound dilution series in DMSO were generated from either powder stocks by hand, or from DMSO stocks using serial dilution on a Vantage (Hamilton), or direct dilution using an Echo 655 (Beckman). In a total volume of 0.145 to 0.150 mL in low-binding 96-well plates (Corning #3605), twelve concentrations of test compound were competed against 10 nM ^3H-dihydrotetrabenezine (American Radiolabeled Chemicals) on human platelet homogenate (30 μg membrane protein per well) in VMAT2 binding buffer (Dulbecco's phosphate buffered saline, 1 mM EDTA, pH 7.4). Following incubation at 25° C. for 90 minutes, bound radioligand was collected by rapid filtration onto either GF/B or GF/C glass fiber filters, pretreated with 0.100 polyethylenimine, using either a Unifilter-96 Harvester (PerkinElmer) or Microlab Star (Hamilton). Following harvesting the filter plates were washed with 0.8 mL VMAT2 binding buffer, and bound radioligand was quantified by scintillation counting using a Topcount NXT or Microplate Counter Microbeta (PerkinElmer).

Chain of human VMAT2 (Q05940 whole entry): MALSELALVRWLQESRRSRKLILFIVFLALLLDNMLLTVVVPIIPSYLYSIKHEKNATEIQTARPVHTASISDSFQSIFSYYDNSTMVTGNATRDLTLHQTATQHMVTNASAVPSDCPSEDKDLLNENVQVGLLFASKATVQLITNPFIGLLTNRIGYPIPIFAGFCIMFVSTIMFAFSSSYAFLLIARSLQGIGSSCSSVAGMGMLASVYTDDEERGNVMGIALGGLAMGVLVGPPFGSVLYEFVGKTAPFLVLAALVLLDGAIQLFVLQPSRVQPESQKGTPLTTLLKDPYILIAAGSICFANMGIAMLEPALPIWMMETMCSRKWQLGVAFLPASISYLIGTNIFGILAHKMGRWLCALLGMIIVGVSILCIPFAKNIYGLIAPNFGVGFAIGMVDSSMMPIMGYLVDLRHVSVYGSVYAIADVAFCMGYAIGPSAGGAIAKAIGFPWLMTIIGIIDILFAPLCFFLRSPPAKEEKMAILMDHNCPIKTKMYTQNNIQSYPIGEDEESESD

Row | SMILES | Ki [nM]
1 | COc1cc2c(cc1OCC(F)F)CCN1C[C@H](CC(C)(C)C)[C@H](O)C[C@@H]21 [Compound 4-2, (2R,3S,11bS)-9-(2,2-difluoroethoxy)-3-(2,2-dimethylpropyl)-10-methoxy-1H,2H,3H,4H,6H,7H,11bH-pyrido[2,1-a]isoquinolin-2-ol] | 467
2 | COc1cc2c(cc1OCC(C)(F)F)CCN1C[C@H](CC(C)(C)C)[C@H](O)C[C@@H]21 [Compound 4-3, (2R,3S,11bS)-9-(2,2-difluoropropoxy)-3-(2,2-dimethylpropyl)-10-methoxy-1H,2H,3H,4H,6H,7H,11bH-pyrido[2,1-a]isoquinolin-2-ol] | 152
3 | COc1cc2c(cc1OCC(F)(F)F)CCN1C[C@H](CC(C)(C)C)[C@H](O)C[C@@H]21 [Compound 4-4, (2R,3S,11bS)-3-(2,2-dimethylpropyl)-10-methoxy-9-(2,2,2-trifluoroethoxy)-1H,2H,3H,4H,6H,7H,11bH-pyrido[2,1-a]isoquinolin-2-ol] | 170
4 | COc1cc2c(cc1OCCC(F)(F)F)CCN1C[C@H](CC(C)(C)C)[C@H](O)C[C@@H]21 [Compound 4-5, (2R,3S,11bS)-3-(2,2-dimethylpropyl)-10-methoxy-9-(3,3,3-trifluoropropoxy)-1H,2H,3H,4H,6H,7H,11bH-pyrido[2,1-a]isoquinolin-2-ol] | 135
5 | COc1cc2c(cc1OCC(F)F)CCN1C[C@H](CC(C)(C)C)[C@@H](O)C[C@@H]21 [Compound 4-6, (2S,3S,11bS)-9-(2,2-difluoroethoxy)-3-(2,2-dimethylpropyl)-10-methoxy-1H,2H,3H,4H,6H,7H,11bH-pyrido[2,1-a]isoquinolin-2-ol] | 860
6 | COc1cc2c(cc1OCC(C)(F)F)CCN1C[C@H](CC(C)(C)C)[C@@H](O)C[C@@H]21 [Compound 4-7, (2S,3S,11bS)-9-(2,2-difluoropropoxy)-3-(2,2-dimethylpropyl)-10-methoxy-1H,2H,3H,4H,6H,7H,11bH-pyrido[2,1-a]isoquinolin-2-ol] | 539
7 | COc1cc2c(cc1OCC(F)(F)F)CCN1C[C@H](CC(C)(C)C)[C@@H](O)C[C@@H]21 [Compound 4-8, (2S,3S,11bS)-3-(2,2-dimethylpropyl)-10-methoxy-9-(2,2,2-trifluoroethoxy)-1H,2H,3H,4H,6H,7H,11bH-pyrido[2,1-a]isoquinolin-2-ol] | 597
8 | COc1cc2c(cc1OCCOC1COC1)CCN1C[C@@H](CC(C)(C)C)[C@H](O)C[C@H]21 [Compound 4-20, (2R,3R,11bR)-3-(2,2-dimethylpropyl)-10-methoxy-9-[2-(oxetan-3-yloxy)ethoxy]-1H,2H,3H,4H,6H,7H,11bH-pyrido[2,1-a]isoquinolin-2-ol] | 336
9 | COc1cc2c(cc1OC[C@@H]1CCO1)CCN1C[C@@H](CC(C)(C)C)[C@H](O)C[C@H]21 [Compound 4-21, (2R,3R,11bR)-3-(2,2-dimethylpropyl)-10-methoxy-9-[(2S)-oxetan-2-ylmethoxy]-1H,2H,3H,4H,6H,7H,11bH-pyrido[2,1-a]isoquinolin-2-ol] | 28
10 | COc1cc2c(cc1OCC(=O)N(C)C)CCN1C[C@@H](CC(C)(C)C)[C@H](O)C[C@H]21 [Compound 4-33, 2-{[(2R,3R,11bR)-3-(2,2-dimethylpropyl)-2-hydroxy-10-methoxy-1H,2H,3H,4H,6H,7H,11bH-pyrido[2,1-a]isoquinolin-9-yl]oxy}-N,N-dimethylacetamide] | > 10000
11 | COc1cc2c(cc1OCCn1ccnc1)CCN1C[C@@H](CC(C)(C)C)[C@H](O)C[C@H]21 [Compound 4-34, (2R,3R,11bR)-3-(2,2-dimethylpropyl)-9-[2-(1H-imidazol-1-yl)ethoxy]-10-methoxy-1H,2H,3H,4H,6H,7H,11bH-pyrido[2,1-a]isoquinolin-2-ol] | > 10000
12 | CNC(=O)COc1cc2c(cc1OC)[C@H]1C[C@@H](O)[C@H](CC(C)(C)C)CN1CC2 [Compound 4-35, 2-{[(2R,3R,11bR)-3-(2,2-dimethylpropyl)-2-hydroxy-10-methoxy-1H,2H,3H,4H,6H,7H,11bH-pyrido[2,1-a]isoquinolin-9-yl]oxy}-N-methylacetamide] | > 10000
